# Results reported in patent US20160184459A1, “CANCER CELL SPECIFIC IMAGING PROBES AND METHODS OF USE” (THE RESEARCH FOUNDATION FOR THE STATE UNIVERSITY OF NEW YORK, priority 2013, published 2016).
# Experiments:
# [1] = system: non-malignant Caco-2 cells; assay: MTS cell viability assay, Caco-2; type: cell-based, human
# Method: FIG. 13. Inhibition of cell viability by BKAc-Puro is presented in dose-response curve format for the same cell lines as in FIG. 8. The cell lines were treated with DMSO or the indicated doses of agent (4.22, 8.44, 16.9, 33.8, 67.5, or 135 μM) for 5 d followed by MTS assay. Data represent mean values of triplicate measurements±s.d. (n=3). IC50 values were fit by logistic regression.
# FIG. 14. Inhibition of cell viability by parental Puro. The cell lines were treated with the indicated doses of Puro (0, 1.1, 2.1, 4.2, or 8.4 μM) for 3 d followed by MTS assay. Data represent mean values of triplicate measurements±s.d.
# (§1) Cell number was determined by cell counting using improved Neubauer hemacytometer. Cell viability was calculated as the number of viable cells divided by the total number of cells using Trypan Blue Stain (Invitrogen) to distinguish non-viable cells. Data were obtained from duplicated samples with quadruplicate measurements. MTS based cell viability assay was performed using CellTiter 96 Aqueous Cell Proliferation Assay (Promega) according to the manufacturer's instruction. Either 1 μl of DMSO alone or variable concentrations of BKAc-Puro or Puro in DMSO were added to the cell lines seeded at 5×10^4 cells per well in 96-well tissue culture plates in 100 μl of the growth medium, followed by 3-5 d incubation at 37° C. with 5% CO2 atmosphere. Then 20 μl of the MTS reagent was added to each well. After additional 2-3 h incubation, the absorbance of the formazan at 490 nm was measured by the microplate reader. Percent cell viability was expressed relative to the wells containing cells treated with DMSO alone. Data were obtained from triplicate measurements. […] Determination of non-viable cells using PI staining was performed by adding 1 μg/ml of PI solution (Sigma) to the cell culture, prior to the examination under fluorescence microscopy (Axiovert 3, Carl Zeiss) through a×32 objective equipped with a digital imaging processor (Infinity 3, Lumenera).
# Eph4 = assay: Cell viability assays (MTS, PI staining), normal mammary epithelial cells; type: cell-based, mouse
# Method: FIG. 15. Inhibition of cell viability by BKAc-Puro. The cell lines were grown and analyzed as in FIG. 12.
# (§2) FIG. 17. Selective cytotoxicity by BKAc-Puro on breast cancer cells. Normal mammary gland epithelial cells (Eph4) and breast cancer cells (MCF-7 and MDA-MB-231) were grown and analyzed as in FIG. 10. BF, bright field. PI, fluorescent PI channel. BKAc-Puro can selectively cause cell death in breast cancer cells (MCF-7 and MDA-MB-231) while leaving normal Eph4 cells unharmed.
# as §1, with “Either 1 μl of DMSO alone or variable concentrations of BKAc-Puro or Puro in DMSO were added to the cell lines seeded at 5×10^4 cells per well in 96-well tissue culture plates in 100 μl of the growth medium, followed by 3-5 d incubation at 37° C. with 5% CO2 atmosphere. Then 20 μl of the MTS reagent was added to each well.” left out, “reader.” for “reader. Percent cell viability was expressed relative to the wells containing cells treated with DMSO alone. Data were obtained from triplicate measurements.”
# [2] = system: breast cancer cells (MCF-7 and MDA-MB-231); assay: PI staining cytotoxicity, breast cancer cells; type: cell-based
# Method: as §2
# as §1, with “Either 1 μl of DMSO alone or variable concentrations of BKAc-Puro or Puro in DMSO were added to the cell lines seeded at 5×10^4 cells per well in 96-well tissue culture plates in 100 μl of the growth medium, followed by 3-5 d incubation at 37° C. with 5% CO2 atmosphere. Then 20 μl of the MTS reagent was added to each well.” left out, “reader.” for “reader. Percent cell viability was expressed relative to the wells containing cells treated with DMSO alone. Data were obtained from triplicate measurements.”
# [3] = system: prostate cancer cells (PC-3, DU-145 and LNCaP); assay: Cell viability assay, prostate cancer cells; type: cell-based; settings: dose-response, MTS
# Method: FIG. 19. Selective cytotoxicity by BKAc-Puro on prostate cancer cells. Prostate cancer (PC-3, DU-145, and LNCaP), colon cancer (HCT116 as a positive control sensitive to the drug), and normal colon (CCD841-CoN as a negative control) cells were grown and analyzed as in FIG. 13. BKAc-Puro can effectively cause cell death on prostate cancer cells.
# as §1, with “Either 1 μl of DMSO alone or variable concentrations of BKAc-Puro or Puro in DMSO were added to the cell lines seeded at 5×10^4 cells per well in 96-well tissue culture plates in 100 μl of the growth medium, followed by 3-5 d incubation at 37° C. with 5% CO2 atmosphere. Then 20 μl of the MTS reagent was added to each well.” left out, “reader.” for “reader. Percent cell viability was expressed relative to the wells containing cells treated with DMSO alone. Data were obtained from triplicate measurements.”
# RPMI8226 cells = assay: Live single cell detection by FACS, cell surface Puro; type: cell-based; settings: 20 μg/ml, 16 hr, anti-puro antibody (12D10) Alexa 647, FACS
# Method: Cell surface detection of Puro by anti-puro antibody (12D10) conjugated to Alexa 647 (EMD Millipore). RPMI8226 cells were treated with Puro (0.25 μg/ml) or Boc-KAc-Puro (20 μg/ml) for 16 hr then harvested by centrifugation followed by two times wash using cold washing solution (0.1% BSA in PBS). Cells were resuspended in the same solution and incubated 30 min on ice with Alexa 647 conjugated mouse IgG2a anti-puromycin antibody (12D10). Cells were washed twice with the solution followed by FACS analysis (BD FACSCalibur). The specificity of the antibody was confirmed by using isotype control antibody (mouse IgG2a conjugated with Alexa 647).
structure (smiles),measurement,setting,value
"COc1ccc(CC(NC(=O)C(CCCCNC(C)=O)NC(=O)OC(C)(C)C)C(=O)NC2C(O)[C@H](n3cnc4c(N(C)C)ncnc43)O[C@@H]2CO)cc1 (stereo partly drawn) [BKAc-Puro, N-[3′-(α-Amino-p-methoxyhydrocinnamamido)-3′-deoxy-N,N-dimethyldenosinyl)-N-α-(t-butoxycarbonyl]-N-ε-acetyl-L-lysineamide]",Highest inactive dose relative to dose of parental Puro effective to Caco-2 cells,[1]; 135 μM BKAc-Puro vs parental Puro,more than 30 times
same,IC50,"[1]; Homo sapiens, Caco-2, 120 h, MTS, 5 d, sufficient inhibition not achieved with doses up to 135 μM",> 135 µM
same,Cell death,Eph4,unharmed
same,Cell death,[2],selectively caused cell death
same,Cell death,[3],effectively caused cell death
same,Puro presentation on cell surface proteins,RPMI8226 cells,confirmed
